These results are taken from patent US12291651B2, “Liquid crystal-infused slippery anti-fouling surfaces” (priority 2021, dated 2025).

The conditions of series [1]: air-water interface; cited from earlier work.
Series [2] can be described thus: Contact angle and base diameter of surfactant droplets on LC-infused SLIPS. It is filed as physicochemical. Particulars: 50 μL droplets: 100 mM DBTAB aqueous; 100 μM SDS in PBS.
The subject of series [3] is S. aureus QS. The experiment in a line: Sliding time of droplets of S. aureus WT culture grown with QS inhibitor on LC-infused SLIPS. It is filed as cell-based. Particulars: WT S. aureus cultured 24 hours with 1 μM inhibitor; QS mutant ~7 s, WT ~27 s. As to the method:
Characterization of Droplet Sliding Times. Characterization of the sliding times of droplets placed on the surfaces of LC-infused SLIPS was performed in the following general manner. LC-infused SLIPS were placed on a custom-made stage, and the stage was attached to the moving arm of a digital protractor using binding clips. The digital protractor was set at a specified sample angle, and a pre-determined volume of aqueous solution was placed as a droplet on the surface of the liquid-infused surface. Sliding droplets were recorded on digital video, and the time required for droplets to slide 4.0 cm along the surface was measured using a digital timer. […] For each surfactant solution, the sliding times of at least 3-5 droplets were measured and used to calculate an average sliding time with standard deviation. […]
Additional experiments were performed to determine whether LC-infused SLIPS could detect the presence of PSMs in live cultures of S. aureus and, thereby, provide methods to monitor QS in communities of this pathogen in ways analogous to the studies of P. aeruginosa above. For these experiments, a S. aureus WT strain and a QS mutant strain (lacking AgrBD, proteins critical for QS) were cultured for 24 hours and the sliding times of droplets of these cultures on LC-infused SLIPS were measured. […]

The subject of series [4] is S. aureus QS. The following applies: cited from earlier work.

Turning to `CCCCCCCCCCCC[N+](C)(C)C.[Br-]` [DTAB, dodecyl-trimethylammonium bromide], in series [1], the limiting surface area is given as 55-63 Å^2. `CCCCCCCCCCCCOS(=O)(=O)[O-].[Na+]` [SDS, Sodium dodecyl sulfate]: in series [2], the “droplet base diameter on LC-infused SLIPS” value came to 4.14±0.02 mm. As to AIP-III D4A, the “sliding time of culture droplets” value in series [3] was roughly 7 s. For the same compound, in series [4], the “concentration that fully inhibits S. aureus QS” value was no less than 1 nM.
